{"source": "patent US10098842B2", "about": "“Method and a device for producing nanoparticles” (Nanoform Finland Oy, priority 2014, dated 2018)", "assay": "Drug release (dissolution) tests in phosphate buffer pH 7.2", "type": "physicochemical", "settings": "gelatin capsule, phosphate buffer pH 7.2, 37.0° C., 400 rpm", "protocol": "Drug release tests for piroxicam nanoparticles and bulk (reference) piroxicam were done to investigate the effect of particle size on the dissolution rate. The tests were conducted in glass vials under heating (37.0±0.5° C.) and stirring (400 rpm) (H+P Labortechnik AG, Multitherm, Germany). Samples were placed in a gelatin capsule and anchored with an iron wire to prevent the capsule from surfacing. The capsule was then placed in glass vials containing phosphate buffer (50 mL; pH 7.2). Aliquots (1 mL) were taken at the time points ranging from 1 min to 48 hours. Drug release tests were conducted in triplicate. Samples were analyzed with high performance liquid chromatography (HPLC Thermo System Products, Agilent 1200 Infinity Series, Agilent Technologies, Germany) using a Discovery® C18 (Supelco Analytical, U.S.) column with guard column and a flow rate of 1 mL/min. The mobile phase was 60:40 (v/v) acetonitrile and 0.05% trifluoroacetic acid. The UV detection of piroxicam was set to 333 nm with a retention time of 2.9 min and total run time of 4 min at 30° C. A standard curve for […] quantification was made from piroxicam concentrations of 0.1-25 μg/mL (R^2=0.999)."}
{"smiles": "CN1C(C(=O)Nc2ccccn2)=C(O)c2ccccc2S1(=O)=O", "note": "[bulk piroxicam, 4-hydroxy-2-methyl-N-(2-pyridinyl)-2H-1,2-benzothiazine-3-carboxamide 1,1-dioxide]", "values": [{"measurement": "dissolution rate compared with the literature (Lai et al. 2011)", "value": "agreed and exceeded that reported in the literature"}]}
